Data reported in paper PMC10587169, “Tuning aminopolycarboxylate chelators for efficient complexation of trivalent actinides” (Scientific Reports, 2023).

Key:
[1] = Spectrophotometric titration; type: binding
Description: (§1) Changes in the optical absorption characteristics of Nd^3+ were monitored using a Cary 6000i UV/Vis–NIR Spectrometer (Agilent) using 1 cm semimicro quartz cuvettes (Starna) in double-beam mode, where the ^4I9/2 → ^4G5/2, ^2G7/2 transitions[34] were monitored between 560 and 605 nm with a 0.075 nm interval and 1.0 nm spectral bandwidth. Changes in the optical absorption characteristics of ^243Am^3+ and ^248Cm^3+ were monitored using a Flame-S-VIS–NIR-ES spectrometer coupled to a DH-2000-BAL dual-mode light source (Ocean Optics) with a single 1 cm semimicro quartz cuvette (Starna). The light source and spectrometer were optically coupled to the CUV sample (Ocean Optics) holder using 2 m fiberoptics (200 μm) and the parameters for acquisition were 0.369 nm interval and 1000 scans averaged with an integration time/scan 1.08 ms (total acquisition time ~ 1 s). The complexation of Am^3+ with the ligands was monitored in the 495–525 nm spectral region, looking at the ^7F0′ → ^5L6′ transition[23],[35]. For Cm^3+, ligand complexation was monitored in the 365–410 nm spectral region, looking at the ^8S7/2 → ^2Ji (i = {15}, {13,9}, {11,17}) manifold transitions[24],[25],[36]. Changes in aqueous p[H^+] were monitored throughout each titration step using a Gran-calibrated Orion Ross Semi-micro glass electrode. Baseline correction was applied to all datasets and was typically a simple linear subtraction. However, in the case of the ^248Cm/H4pypa-peg spectra, the tail end of the ligand absorption overlapped the hypersensitive Cm peaks. In this case the background correction was applied using a 5th-order empirical polynomial. Finally, the spectroscopic data was analyzed using the HypSpec software package[33],[37]. Full details of the titrand and titrant solutions for each titration are included in the Supplemental Information.
The coordination of Nd^3+ by H4octapa and H4pypa-peg was also studied using spectroscopic methods. Figures 5A, B show the collected spectrophotometric signatures for H4octapa and H4pypa-peg, respectively.4 M^3++L^4-⇆ML^-β101=ML^-/[M^3+]L^4- 5 M^3++H^++L^4-⇆MHLaqβ111=MHLaq/[M^3+L^4-H^+]
Optical absorption features of ^4I9/2 → ^4G5/2, ^2G7/2 transitions for Nd^3+ are perturbed due to the introduction of increasing quantities of complexants, resulting in characteristic red-shifted changes. In Fig. 5A a broad absorption band with λmax = 577 nm is distinctly different to the optical absorption of free Nd^3+ metal in Fig. 5B. The differences can be attributed to the nitrate complexation of Nd^3+ as the spectrophotometric titration with H4octapa was performed in 2.0 M (Na^+/H^+)NO3. […] The HypSpec interpretation of the Nd/pypa-peg titration points to the presence of three absorbing species: Nd^3+, NdHL(aq), and NdL^−. The conditional stability constants obtained spectroscopically are listed in Table 3, showing good agreement with the stability constants determined using potentiometry. The complex stability constants for structurally similar APC ligands found in the literature are also presented (H4pypa[18] and H4py4pa[57]).
2. Spectrophotometric titration parameters
Nd3+: The titrand solution consisting of 1.980 mL of 7.57 mM Nd(ClO4)3 at p[H+] = 1.61 was blended with 1.965 mL of titrant solution containing 7.62 mM Nd3+, 18.57 mM H4octapa, […]
Am3+: The titrand solution consisting of 0.842 mL of 0.810 mM Am(ClO4)3 at p[H+] =1.66 was blended with 0.811 mL of titrant solution containing 0.815 mM Am3+, 8.95 mM H4octapa, at p[H+] ≈ 5.0 – 6.0.
Nd3+: The titrand solution consisting of 0.801 mL of 9.82 mM Nd(ClO4)3 at p[H+] = 1.61 was blended with 1.176 mL of titrant solution containing 9.91 mM Nd3+ and 24.58 mM H4pypa-peg in with p[H+] ≈ 3.0 – 4.0.
Am3+: The titrand solution consisting of 0.806 mL of 0.791 mM Am(ClO4)3 at p[H+] = 1.41 was blended with 0.787 mL of titrant solution containing 0.801 mM Am3+ and 15.09 mM H4pypa-peg at p[H+] ≈ 5 – 6.
Cm3+: The titrand solution consist ing of 0.809 mL of 1.00 mM Cm(ClO4)3 at p[H+] = 1.34 was […]

[2] = Spectrophotometric titration; type: binding; remark: listed apart in the source
Description: as §1
To further validate the competitive solvent extraction methodology the complexation of Am^3+ with H4octapa and Cm^3+ with H4pypa-peg was studied spectrophotometrically. These titrations monitored the ligand-induced changes on the optical absorption spectra of free Am^3+ at λmax = 503.0 nm, (Fig. 8A) and Cm^3+ at λmax = 375.0, 380.6, 396.5 nm, (Fig. 8C). The presence of both ligands induced new red-shifted absorption signatures in each monitored titration. […] Excellent agreement between the solvent extraction and spectrophotometry was attained for the β101 values for the formation of [Am(octapa)]^− albeit the uncertainty associated with a constant measured using competitive liquid–liquid distribution is rather large and points out the shortcomings of this method. A variance between two analytical methods is larger for [Cm(pypa-peg)]^− possibly due to free ligand absorption interferences.
2. Spectrophotometric titration parameters […]
H4octapa, at p[H+] ≈ 5.0 – 6.0. […]
Am3+: The titrand solution consisting of 0.806 mL of 0.791 mM Am(ClO4)3 at p[H+] = 1.41 was
blended with 0.787 mL of titrant solution containing 0.801 mM Am3+ and 15.09 mM
H4pypa-peg at p[H+] ≈ 5 – 6. […]

[3] = spectrophotometrically determined in 2.0 M (Na+/H+)ClO4, 20 °C
[4] = I = 2.0 M (Na+/H+)ClO4 at 20.0 °C (spectrophotometric titration)

Row | SMILES | logβ101 (ML), Nd [1, 3] | logβ111 (MHL), Nd [1, 3] | logβ101 (ML), Am3+ [2, 4] | logβ111 (MHL), Am3+ [2, 4] | logβ121 (MH2L), Am3+ [2, 4] | logK111, Nd ([1]; spectrophotometrically determined in 2.0 M (Na+/H+)ClO4) | logβ101 (ML), Nd ([1]; spectrophotometrically determined in 2.0 M (Na+/H+)NO3) | logβ101 (ML), Am3+ ([2]; spectrophotometrically measured, I = 2.0 M (Na+/H+)NO3, T = 25 ± 1 °C, ±3σ)
1 | O=C(O)CN(CCN(CCN(CC(=O)O)CC(=O)O)CC(=O)O)CCN(CC(=O)O)CC(=O)O [H6ttha, triethylenetetraamine-N,N,N',N'',N''',N'''-hexaacetic acid] | 21.90(7) | 25.56(7) | 23.25(3) | 27.02(3) | 28.84(2) | – | – | –
2 | O=C(O)CN(Cc1cc(-c2cn(CCOCCOCCO)nn2)cc(CN(CC(=O)O)Cc2cccc(C(=O)O)n2)n1)Cc1cccc(C(=O)O)n1 [H4pypa-peg, 6,6'-((((4-(1-(2-(2-(2-hydroxyethoxy)ethoxy)ethyl)-1H-1,2,3-triazol-4-yl)pyridine-2,6-diyl)bis–(methylene))bis–((carboxymethyl)azanediyl))bis–(methylene)) dipicolinic acid] | 18.15 (6) | 20.04 (4) | – | – | – | 1.89 (6) | – | –
3 | O=C(O)CN(CCN(CC(=O)O)Cc1cccc(C(=O)O)n1)Cc1cccc(C(=O)O)n1 [H4octapa, 6,6′-((ethane-1,2-diylbis–((carboxymethyl)azanediyl))bis–(methylene))dipicolinic acid] | – | – | – | – | – | – | 18.15 (1) | 19.28 (1)
4 | O=C(O)CN(CCN(CC(=O)O)CC(=O)O)CCN(CC(=O)O)CC(=O)O [H5dtpa, diethylenetriamine-N,N,N',N'',N''-pentaacetic acid] | 20.23(2) | 21.59(2) | 21.45(1) | 22.62(2) | – | – | – | –
